Patent US20240058336A1 (IMPACT BIOMEDICINES, INC., priority 2020, published 2024)
Counter-ions that a name gives are not always drawn.

Legend:
[1] = tested on: nausea and vomiting; assay: Ondansetron prophylaxis in a previous Phase 1 fedratinib study; assay type: in vivo, human; conditions: prophylaxis before fedratinib
Excerpt: A subsequent oral dose(s) of ondansetron may be given, as necessary, in accordance with the United States Package Insert (USPI).

[2] = tested on: patient-derived cell lines expressing JAK2V617F and cells engineered to express WT JAK2 or JAK2V617F; conditions: cited from earlier work
[3] = Tolerability of single fedratinib doses in healthy subjects; assay type: in vivo, human
[4] = Fedratinib pharmacokinetics in healthy subjects; assay type: in vivo, human
[5] = tested on: CYP3A4, CYP2C19 and flavin-containing monooxygenases (FMOs); assay: In vitro evaluations of fedratinib metabolism; assay type: in vitro ADME
[6] = biological target: T1, FLT3 kinase (Homo sapiens, UniProt P36888); conditions: cited from earlier work
T1 sequence (P36888 27-993): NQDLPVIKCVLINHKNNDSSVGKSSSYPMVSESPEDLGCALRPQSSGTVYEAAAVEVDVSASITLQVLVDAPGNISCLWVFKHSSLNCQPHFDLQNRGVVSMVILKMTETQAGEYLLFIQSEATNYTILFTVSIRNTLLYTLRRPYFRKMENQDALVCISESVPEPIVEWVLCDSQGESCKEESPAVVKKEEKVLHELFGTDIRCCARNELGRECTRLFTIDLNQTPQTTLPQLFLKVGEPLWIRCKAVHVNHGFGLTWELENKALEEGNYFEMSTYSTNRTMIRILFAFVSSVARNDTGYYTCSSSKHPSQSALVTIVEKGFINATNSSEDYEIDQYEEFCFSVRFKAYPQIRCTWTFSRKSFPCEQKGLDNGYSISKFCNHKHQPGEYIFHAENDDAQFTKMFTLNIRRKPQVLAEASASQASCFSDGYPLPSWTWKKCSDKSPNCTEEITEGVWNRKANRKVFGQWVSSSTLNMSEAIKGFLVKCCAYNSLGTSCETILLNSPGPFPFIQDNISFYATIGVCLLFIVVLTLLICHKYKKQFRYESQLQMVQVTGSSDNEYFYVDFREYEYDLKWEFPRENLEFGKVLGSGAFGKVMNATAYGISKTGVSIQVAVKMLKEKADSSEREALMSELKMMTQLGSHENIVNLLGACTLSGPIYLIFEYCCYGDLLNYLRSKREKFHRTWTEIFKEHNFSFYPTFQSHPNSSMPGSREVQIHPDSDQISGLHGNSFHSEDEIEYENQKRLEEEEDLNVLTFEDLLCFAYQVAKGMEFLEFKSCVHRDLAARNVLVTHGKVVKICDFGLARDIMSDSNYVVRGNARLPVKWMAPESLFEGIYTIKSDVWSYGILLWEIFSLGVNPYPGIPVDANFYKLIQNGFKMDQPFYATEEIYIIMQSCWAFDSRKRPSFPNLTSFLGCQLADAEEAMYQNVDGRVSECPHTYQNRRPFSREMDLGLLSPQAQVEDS

[7] = tested on: JAK2V617F-driven MPNs; conditions: mouse models; cited from earlier work

**Q.** For `Cc1nccn1CC1CCc2c(c3ccccc3n2C)C1=O` (stereo not shown) [Ondansetron], which nausea and vomiting [1] is on record?
**A.** The nausea and vomiting was “reduce nausea and vomiting”.

**Q.** Which results are given for `Cc1cnc(Nc2ccc(OCCN3CCCC3)cc2)nc1Nc1cccc(S(=O)(=O)NC(C)(C)C)c1` [fedratinib, N-tert-butyl-3-[(5-methyl-2-{[4-(2-pyrrolidin-1-ylethoxy)phenyl]amino}pyrimidin-4-yl)amino]benzenesulfonamide dihydrochloride monohydrate]?
**A.** STAT phosphorylation [2]: reduced phosphorylation of STATS/STATS; apoptosis [2]: increased apoptosis; cell proliferation [2]: inhibited cell proliferation; single dose tolerated [3]: up to 680 mg; fraction of total fedratinib AUC captured ([4]; by 168 hours postdose, healthy subjects): approximately 90%; PK linearity ([4]; clinically relevant dose range, single-dose PK predicts multiple-dose PK): linear; half-life ([4]; human, in vivo, healthy subjects, read-out: effective half-life (converted)): ~30 h; metabolizing enzymes [5]: metabolized by multiple CYPs, with the predominant contribution from CYP3A4, and with lesser contributions from CYP2C19 and flavin-containing monooxygenases (FMOs); inhibition of FLT3 kinase [6]: inhibits; STAT phosphorylation [7]: blocked phosphorylation of STATS/5; disease-associated symptoms (leukopenia, anemia, splenomegaly, fibrosis) [7]: improved disease-associated symptoms; survival [7]: increased survival
